The record followed here is patent US11065300B2, “Immunomodulator for hypersensitivity reaction to house dust mite-derived allergen” (MD HEALTHCARE INC., priority 2016, dated 2021).

For this assay, the system named is macrophage RAW264.7. Put plainly: IL-6 and TNF-alpha secretion by macrophages given MicA sRNA Salmonella vesicles mixed with PMB. Format: cell-based. The procedure:
Salmonella-derived vesicles themselves have good immunogenicity, but toxicity due to LPS present in the extracellular membrane is a problem. In order to solve this problem, the induction level of innate immune response was evaluated by mixing PMB inhibiting the activity of LPS with vesicles derived from Salmonella overexpressing Mic A sRNA.
Specifically, inflammatory cells (macrophage RAW264.7, 5×10^5 cells/well) were cultured in DMEM comprising 10% FBS and antibiotics (100 units/ml penicillin and 100 μg/ml streptomycin) for 24 hours at 37° C. 24 well tissue culture plate (TPP). After the medium was removed, extracellular vesicles comprising PMB were changed to serum-free DMEM medium added at a concentration of 1 ug/ml. After 15 hours, secretion of IL-6 and TNF-alpha was measured in inflammatory cells.
In order to determine the optimum PMB dilution concentration, in the above method, the PMB concentration was subdivided into 1, 2, 4, 8, and 10 ug/ml and administered to the macrophages together with the vesicles.

Regarding polymyxin B [PMB], the IL-6 secretion entry (PMB 1 μg/ml or 10 μg/ml mixed with vesicles 1 ug/ml, RAW264.7, 15 hours) is recorded as “decreased”. The TNF-alpha secretion entry (PMB 10 μg/ml mixed with vesicles 1 ug/ml, RAW264.7, 15 hours) is on record as “inhibited”. The “PMB concentration above which secretion of IL-6 no longer decreased” value (PMB 1, 2, 4, 8 and 10 ug/ml with vesicles, RAW264.7) worked out at 2 µg/mL.
